Our source for the IC50 values is BindingDB's records for patent US10065950 (Japan Tobacco Inc, 2018).

In the assay the target is Gag-Pol polyprotein (Human immunodeficiency virus type 1 group M subtype B (isolate NY5), UniProt P12497). Briefly: HIV Integrase Inhibitory Assay. To be noted: 25 °C.
In turn, `CCOC[C@@H]1Cn2cc(-c3nnc(Cc4ccc(F)cc4)s3)c(=O)c(O)c2C(=O)N1CC1CC1` [US10065950, Example 11] returned an IC50 of 6.4 nM. With `COC[C@H]1CN(C(C)C)C(=O)c2c(O)c(=O)c(-c3nnc(Cc4ccc(F)cc4)s3)cn21` [US10065950, Example 4], the IC50 is 10 nM. In turn, `CCOC[C@@H]1Cn2cc(-c3nnc(Cc4ccc(F)cc4)s3)c(=O)c(O)c2C(=O)N1CC` [US10065950, Example 13] registered an IC50 of 6.4 nM. As for `CCN1C[C@](C)(C(=O)N2CCC2)n2cc(-c3ncc(Cc4ccc(F)cc4)s3)c(=O)c(O)c2C1=O` [US10065950, Example 17], it took 7.9 nM to reach half-maximal inhibition (IC50).

As for `COC[C@@H]1Cn2cc(-c3nnc(Cc4ccc(F)cc4)s3)c(=O)c(O)c2C(=O)N1CC1CC1` [US10065950, Example 10], 8.8 nM corresponded to half-maximal inhibition (IC50). With `COCCOC[C@H]1CN(C2CC2)C(=O)c2c(O)c(=O)c(-c3nnc(Cc4ccc(F)cc4)s3)cn21` [US10065950, Example 16] the figure was 20 nM. In the case of `CCN1C(=O)c2c(O)c(=O)c(-c3nnc(Cc4ccc(F)cc4)s3)cn2C[C@H]1COC` [US10065950, Example 9] it was 9.1 nM. In the case of `COC[C@@H]1Cn2cc(-c3nnc(Cc4ccc(F)cc4)s3)c(=O)c(O)c2C(=O)N1C(C)C` [US10065950, Example 3] it was 8.5 nM; in that of `CCOC[C@@H]1Cn2cc(-c3nnc(Cc4ccc(F)cc4)s3)c(=O)c(O)c2C(=O)N1C(C)C` [US10065950, Example 12], 7.3 nM; in that of `CC(C)N1C(=O)c2c(O)c(=O)c(-c3nnc(Cc4ccc(F)cc4)s3)cn2C[C@H]1C` [US10065950, Example 6], 5.6 nM. `CCN1C(=O)c2c(O)c(=O)c(-c3nnc(Cc4ccc(F)cc4)s3)cn2[C@@H](C)[C@H]1COC` [US10065950, Example 14] gave an IC50 of 10 nM.

Molecule `CC(C)N1C[C@H](C)n2cc(-c3nnc(Cc4ccc(F)cc4)s3)c(=O)c(O)c2C1=O` [US10065950, Example 5] gave an IC50 of 7.4 nM.

Consider `COCCOC[C@H]1CN(C(C)C)C(=O)c2c(O)c(=O)c(-c3nnc(Cc4ccc(F)cc4)s3)cn21` [US10065950, Example 15], for which the IC50 was 13 nM.
